Key:
TEAD4 = target: T1, TEAD4 (Homo sapiens, UniProt Q15561); experiment: HiBiT degradation assay, HEK293T HiBiT-TEAD4; assay type: cell-based; details: 6 h
T1 construct: endogenous in cells; host or cells: HEK293T HiBiT knock-in
Protocol: (§1) HiBiT cells were inoculated into 96‐well flat‐bottomed tissue culture plates at a density of 50 000 cells per well, followed by adding degraders into the wells using the I‐DOT dispenser. After 6 h of incubation, the cells were lysed and assayed for degradation using the Nano‐Glo HiBiT Lysis Assay System (Promega, #N3030). Luminescence signals were read using an Envision plate reader (Revvity) and the data were analyzed using GraphPad Prism 9.5 software.
(§2) The ribonucleoprotein (RNP) complex was prepared by mixing 2 µg of NLS‐Cas9‐EGFP nuclease (Novoprotein, #E379‐01A), 50 pmol of sgRNA, 10 µL of electrotransfer solution, and 50 pmol of designed donor DNA, then incubated for 10 min at room temperature. One million HEK293T cells were resuspended in 10 µL of electrotransfection solution and mixed with 10 µL of the RNP complex. Electroporation was performed using a Celetrix SP100 electroporator at 480 V. After electroporation, the cells were transferred to antibiotic‐free DMEM complete medium for overnight culture. The following day, EGFP‐positive cells were sorted using a Sony MA 900 cell sorter, plated in a 96‐well cell culture plate (Servicebio, #CCP‐96H), and cultured for 4 weeks. After this period, positive clones were screened using the Nano‐Glo HiBiT Lytic Detection system (Promega, #N3030).

TEAD1 [1] = target: T2, TEAD1 (Homo sapiens, UniProt P28347); experiment: Immunoblot of TEAD1 degradation in TEAD1-mNeonGreen fusion NCI-H1299 cells; assay type: cell-based; set-up: endogenous in cells; host or cells: NCI-H1299 (TEAD1-mNeonGreen knock-in); details: 100 nM, TEAD1-mNeonGreen fusion NCI-H1299 cells
Protocol: (§3) Immunoblotting was carried out as previously described.^[ [29] ^] Cells were seeded in 6‐well plates (Yeasen, #84011ES50) at a density of 1 million cells per well. The following day, cells were treated with compounds at the required concentrations, with the DMSO concentration kept below 0.4‰ to prevent toxic effects on the cells. The collected cell pellets were washed three times with PBS (Meilunbio, #MA0015) and resuspended in 120 µL of RIPA lysis buffer (Meilunbio, #MA0151) containing 1% protease inhibitor (Meilunbio, #MB2678‐2). The cells were then sonicated on ice and centrifuged at 12 000 rpm for 15 min at 4 °C to remove cellular debris. Protein concentrations were determined using the BCA Protein Quantification Kit (Meilunbio, #MA0082‐1). The protein samples were normalized, boiled at 99 °C for 10 min, and then subjected to electrophoresis on a 10% SDS‐PAGE gel. The separated protein bands were transferred to nitrocellulose membranes, blocked with TBST containing 5% BSA, and incubated with the indicated primary antibodies. Finally, the blots were imaged using an Amersham Typhoon NIR imager.
Target sequence in this assay (P28347 whole entry, the tested form may be a part): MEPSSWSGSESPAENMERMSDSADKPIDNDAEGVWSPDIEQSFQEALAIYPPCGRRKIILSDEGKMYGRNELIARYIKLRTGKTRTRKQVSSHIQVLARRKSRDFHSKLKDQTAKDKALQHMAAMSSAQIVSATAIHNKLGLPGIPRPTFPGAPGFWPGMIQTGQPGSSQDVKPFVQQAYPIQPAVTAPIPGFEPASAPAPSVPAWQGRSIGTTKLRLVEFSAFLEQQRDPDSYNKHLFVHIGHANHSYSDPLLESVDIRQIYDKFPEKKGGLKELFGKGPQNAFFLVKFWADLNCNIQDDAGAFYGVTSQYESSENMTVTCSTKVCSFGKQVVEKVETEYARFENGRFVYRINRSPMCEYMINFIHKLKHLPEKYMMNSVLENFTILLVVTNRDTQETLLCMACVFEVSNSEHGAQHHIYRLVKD
Target sequence in this assay (Q96SW2 whole entry, further chain, the tested form may be a part): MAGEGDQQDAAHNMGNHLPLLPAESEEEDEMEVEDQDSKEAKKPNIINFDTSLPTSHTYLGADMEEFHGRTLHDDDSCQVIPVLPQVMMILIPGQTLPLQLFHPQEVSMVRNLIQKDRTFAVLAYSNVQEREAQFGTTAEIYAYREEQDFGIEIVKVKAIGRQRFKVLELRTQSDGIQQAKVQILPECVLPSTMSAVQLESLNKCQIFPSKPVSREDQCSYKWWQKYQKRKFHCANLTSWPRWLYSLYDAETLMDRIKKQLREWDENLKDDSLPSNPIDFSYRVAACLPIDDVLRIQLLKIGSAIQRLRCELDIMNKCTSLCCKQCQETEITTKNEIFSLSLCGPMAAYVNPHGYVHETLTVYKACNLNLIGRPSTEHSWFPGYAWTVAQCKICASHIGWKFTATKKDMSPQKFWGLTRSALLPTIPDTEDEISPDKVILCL
Target sequence in this assay (Q16531 2-1140 partner limits assumed): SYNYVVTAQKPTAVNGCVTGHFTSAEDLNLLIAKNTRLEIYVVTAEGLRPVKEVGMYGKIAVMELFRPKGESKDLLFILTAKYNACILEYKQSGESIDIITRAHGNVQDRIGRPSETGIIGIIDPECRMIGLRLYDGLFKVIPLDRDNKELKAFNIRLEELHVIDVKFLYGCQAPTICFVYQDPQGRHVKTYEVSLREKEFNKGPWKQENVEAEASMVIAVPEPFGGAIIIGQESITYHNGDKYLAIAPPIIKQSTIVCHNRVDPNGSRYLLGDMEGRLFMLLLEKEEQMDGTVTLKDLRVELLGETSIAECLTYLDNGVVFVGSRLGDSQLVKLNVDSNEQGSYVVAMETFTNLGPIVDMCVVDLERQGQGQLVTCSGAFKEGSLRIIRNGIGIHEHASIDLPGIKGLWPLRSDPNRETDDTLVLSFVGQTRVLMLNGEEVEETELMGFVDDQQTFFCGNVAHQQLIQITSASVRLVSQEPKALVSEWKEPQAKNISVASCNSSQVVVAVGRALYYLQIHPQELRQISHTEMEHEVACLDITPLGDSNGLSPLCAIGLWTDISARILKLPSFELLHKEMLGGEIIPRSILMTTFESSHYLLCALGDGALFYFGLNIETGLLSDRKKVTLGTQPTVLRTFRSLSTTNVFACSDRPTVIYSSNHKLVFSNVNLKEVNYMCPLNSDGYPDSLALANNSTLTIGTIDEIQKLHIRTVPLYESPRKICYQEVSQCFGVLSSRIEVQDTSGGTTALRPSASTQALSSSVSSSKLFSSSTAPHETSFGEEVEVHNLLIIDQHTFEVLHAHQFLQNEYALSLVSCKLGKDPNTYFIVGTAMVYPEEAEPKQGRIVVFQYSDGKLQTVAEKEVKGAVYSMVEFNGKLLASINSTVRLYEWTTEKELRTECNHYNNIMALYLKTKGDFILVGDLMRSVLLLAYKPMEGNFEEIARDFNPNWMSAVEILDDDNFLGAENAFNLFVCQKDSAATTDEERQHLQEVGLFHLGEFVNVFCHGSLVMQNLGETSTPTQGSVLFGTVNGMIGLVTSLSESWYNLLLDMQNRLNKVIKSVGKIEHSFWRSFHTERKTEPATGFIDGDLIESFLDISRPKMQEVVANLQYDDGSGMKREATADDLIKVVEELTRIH

TEAD1, TEAD3, and TEAD4 = experiment: Immunoblot dose-response in TEAD1-mNeonGreen fusion NCI-H1299 cells; assay type: cell-based; details: 6 h
Protocol: as §3

TEAD1 [2] = target: T2, TEAD1; experiment: HiBiT degradation assay, HEK293T HiBiT-TEAD1; assay type: cell-based; set-up: endogenous in cells; host or cells: HEK293T wild-type and CRBN-knockout; details: 6 h
Protocol: as §1, §2
Target sequence in this assay (P28347 whole entry, the tested form may be a part): as the sequence (P28347 whole entry, the tested form may be a part) above

TEAD1/3, TAZ = experiment: Immunoblot in A172 cells; assay type: cell-based; details: 24 h
Protocol: as §3

A172 cells [3] = experiment: Cell viability assay (CTG, 72 h) A172; assay type: cell-based; details: Homo sapiens, A 172, 72 h, 3-day compound treatment
Protocol: Cells were seeded at a density of 1000 cells per well in 96‐well flat‐bottomed cell culture plates and cultured overnight at 37 °C with 5% CO2 to allow for cell attachment. The following day, different concentrations of compounds were added using an I‐DOT dispenser. After 72 h, 25 µL of CellTiter‐Meiluncell Luminescent Cell Viability Reagent (Meilunbio, #PWL111‐2) was added and incubated for 15 min at room temperature. Luminescence signals were then measured using an Envision plate reader (Revvity). Data were analyzed using GraphPad Prism 9.5 software.^[ [30] ^]

A172 cells [4] = experiment: RNA-seq transcriptomics in A172 cells; assay type: cell-based; details: 30 nM, 24 h
Protocol: Following treatment, cells were harvested, washed three times with pre‐chilled PBS, and stored at −80 °C. Total RNA was extracted using TRIzol reagent according to the manufacturer's instructions. mRNA was enriched using oligo(dT) magnetic beads, followed by fragmentation in First Strand Synthesis Reaction Buffer (5×) with divalent cations under elevated temperature.
RNA‐seq libraries were constructed using the ABclonal Fast RNAseq Lib Prep Kit V2 (#RK20306). […] Base calling was performed through real‐time fluorescence capture of polymerase‐driven extension reactions using fluorescently labeled dNTPs and adapter‐anchored primers. Gene‐level read counts were quantified using featureCounts (v2.0.6) and normalized to FPKM values by incorporating gene length. Differential expression analysis was conducted using the DESeq2 package (v1.42.0) for samples with biological replicates, based on the negative binomial distribution. P‐values were adjusted using the Benjamini–Hochberg method, with significance thresholds set at adjusted p ≤ 0.05 and |log2(fold change)| ≥ 1. For samples without replicates, edgeR (v4.0.16) was used, with scaling normalization applied to correct for sequencing depth differences. Functional enrichment analysis, including Gene Ontology (GO) and KEGG pathway analysis, was performed using clusterProfiler (v4.8.1), with correction for gene length bias. A significance threshold of adjusted p < 0.05 was applied. In addition, Gene Set Enrichment Analysis (GSEA) was performed to assess coordinated expression changes in predefined gene sets (GO and KEGG), with genes ranked by the magnitude of differential expression. All transcriptomic experiments were performed by Novogene Co., Ltd.

TEAD2 = target: T3, TEAD2 (Homo sapiens, UniProt Q15562); experiment: HiBiT degradation assay, HEK293T HiBiT-TEAD2; assay type: cell-based; details: 6 h
T3 construct: endogenous in cells; host or cells: HEK293T HiBiT knock-in
T3 sequence (Q15562 whole entry): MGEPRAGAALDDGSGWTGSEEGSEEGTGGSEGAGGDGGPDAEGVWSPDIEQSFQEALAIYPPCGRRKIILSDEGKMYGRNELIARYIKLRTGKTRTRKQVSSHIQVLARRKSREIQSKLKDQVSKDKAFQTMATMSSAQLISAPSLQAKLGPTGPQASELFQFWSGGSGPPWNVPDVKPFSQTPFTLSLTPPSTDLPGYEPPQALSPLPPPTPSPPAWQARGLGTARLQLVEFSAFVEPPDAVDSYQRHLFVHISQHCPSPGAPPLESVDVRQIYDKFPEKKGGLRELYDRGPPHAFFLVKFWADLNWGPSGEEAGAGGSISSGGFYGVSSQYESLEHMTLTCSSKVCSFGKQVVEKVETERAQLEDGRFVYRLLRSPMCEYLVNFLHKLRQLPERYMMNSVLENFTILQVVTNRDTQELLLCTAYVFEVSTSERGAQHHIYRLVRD
Protocol: as §1, §2

[5] = Pharmacokinetic evaluation in ICR male mice; assay type: in vivo; details: mouse, plasma

T1 sequence (Q15561 whole entry): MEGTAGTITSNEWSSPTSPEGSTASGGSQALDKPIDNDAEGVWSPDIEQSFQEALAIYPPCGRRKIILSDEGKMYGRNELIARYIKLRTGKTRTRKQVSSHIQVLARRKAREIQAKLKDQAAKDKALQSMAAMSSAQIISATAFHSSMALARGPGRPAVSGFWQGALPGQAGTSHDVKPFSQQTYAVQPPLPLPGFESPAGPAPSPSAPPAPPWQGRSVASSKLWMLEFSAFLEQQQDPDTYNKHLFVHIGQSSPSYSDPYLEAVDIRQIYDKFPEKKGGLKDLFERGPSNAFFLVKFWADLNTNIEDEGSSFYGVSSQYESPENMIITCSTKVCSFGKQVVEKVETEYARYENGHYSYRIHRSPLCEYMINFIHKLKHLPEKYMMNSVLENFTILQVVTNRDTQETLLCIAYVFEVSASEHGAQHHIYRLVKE

## CNC(=O)c1cc2c(c(F)c1-c1c(Cl)c(F)cc3c1C[C@@](CN[C@H]1CC[C@H](C(=O)N4CCC(CC5CCN(C(=O)COc6ccc(N7CCC(=O)NC7=O)c(C)c6)CC5)CC4)CC1)(c1ccccc1)O3)[C@@H](O)[C@@H](C)C2 [KG-FP-003]
TEAD4
  DC50: 7 ± 5 nM
  TEAD4 Dmax: ≈ 90%
TEAD4; HEK-293T
  Dmax: 88 ± 6%
TEAD1 [1]
  Duration of sustained TEAD1 degradation: up to 12 days
TEAD1, TEAD3, and TEAD4
  DC50 against TEAD1, TEAD3, and TEAD4 by immunoblot: nanomolar range
TEAD1 [2]
  DC50: 6 ± 4 nM
  TEAD1 Dmax: ≈ 90%
TEAD1 [2]; HEK-293T
  Dmax: 93 ± 1%
TEAD1/3, TAZ
  Degradation of TEAD1 and TEAD3 by immunoblot: complete degradation
  TAZ protein expression by immunoblot: increased TAZ protein expression
A172 cells [3]
  IC50: 7 ± 6 nM
A172 cells [4]
  Share of the compound's regulated genes in the 56-gene overlap: 4%
A172 cells [4]; VS Control (DMSO)
  DEG gene counts (Down): 611
  DEG gene counts (Up): 662
TEAD2
  DC50: 68 ± 15 nM
  TEAD2 Dmax: over 80%
TEAD2; HEK-293T
  Dmax: 84 ± 5%
[5]; IP 5 mg/kg
  AUC(0-inf): 2610 ng·h/mL
  AUC(0-t): 2560 ng·h/mL
  Cmax: 2010 ng/mL
  MRT inf: 3.13 h
  Tmax: 0.42 h
  half-life: 5.42 h
[5]; IP 5 mg/kg, read-out: F% (bioavailability)
  bioavailability: 99%
[5]; IV 2 mg/kg
  AUC(0-inf): 1060 ng·h/mL
  AUC(0-t): 1040 ng·h/mL
  Cmax: 4430 ng/mL
  MRT inf: 1.4 h
  Tmax: 0 h
  half-life: 3.57 h

From publication PMC12752627, “Discovery of a Potent and Selective TEAD Degrader with Durable Degradation Activity” (Advanced Science, 2025)
